As a reminder, the IC50 is the concentration at which inhibition is half-maximal.

From ChEMBL document CHEMBL4699533, “Compounds from Toddalia asiatica: Immunosuppressant Activity and Absolute Configurations” (J Nat Prod, 2020) come the findings set out here.

Molecules are shown by their SMILES. Active and inactive are the calls of the source. The rule behind the calls is not given here.

Data set [1] has as its system T cell. The data set can be described thus: Inhibition of anti-human CD3/CD28/mAbs-stimulated human T-cell proliferation at 30 uM after 72 hrs by CFSE staining based flow cytometric analysis. It is filed as functional, tissue-based. Background: A flow cytometer gives signals particle by particle.
Data set [2] in a line: (§1) Inhibition of anti-human CD3/CD28/mAbs-stimulated human T-cell proliferation after 72 hrs by CFSE staining based flow cytometric analysis. It is filed as functional, tissue-based.
Data set [3] deals with T cell. The description is as §1. The data set is classed as functional, tissue-based.
A short description of data set [4]: Cytotoxicity against human T-cell assessed reduction in cell viability at 30 uM after 72 hrs. The data set is classed as tissue-based.
Data set [5] is described as follows: Cytotoxicity against human T-cell assessed reduction in cell viability at 10 uM after 72 hrs. It is filed as tissue-based.

Consider `COc1cc(/C=C/C(=O)OC[C@H]2O[C@@H](OC[C@H]3[C@H](CO)Cc4cc(OC)c(O)c(OC)c4[C@@H]3c3cc(OC)c(O)c(OC)c3)[C@H](O)[C@@H](O)[C@@H]2O)cc(OC)c1O`, for which the inhibition entry in the data set on T cell [1] is “Active”.

As to `COc1cc2oc(=O)ccc2c(OC)c1CC(O[C@@H]1O[C@H](CO)[C@@H](O)[C@H](O)[C@H]1O)C(C)(C)O` (some centres undefined), the inhibition entry in the data set on T cell [1] is “Active”.

As to `COc1cc2oc(=O)ccc2c(OC)c1C[C@H](O)C(C)(C)O[C@@H]1O[C@H](CO)[C@@H](O)[C@H](O)[C@H]1O`, the inhibition entry with T cell [1] is “Active”. The same measure, in the same setting: the entry for `COc1cc2oc(=O)ccc2c(OC)c1CC(O)C(C)(C)O` (centres undefined) is “Active”; for `COc1cc(C(=O)O)cc(OC)c1O` it is “Active”. As to `COc1cc(O)c(CCC(=O)O)c(OC)c1CC(O)C(C)(C)O` (centres undefined), the inhibition entry with T cell [1] is “Active”. For the compound `COc1ccc2c(c1OC)CN(C)CCc1cc3c(cc1C(=O)C2)OCO3`, the inhibition result with T cell [1] is “Active”. On to `COc1cc2oc(=O)ccc2c(OC)c1C[C@@H](O)C(C)(C)O[C@@H]1O[C@H](CO)[C@@H](O)[C@H](O)[C@H]1O`, for which the inhibition entry in the data set on T cell [1] is “Active”.

With `COc1cc(/C=C/C(=O)OC[C@H]2O[C@@H](OC[C@@H](Cc3cc(OC)c(O)c(OC)c3)[C@@H](CO)Cc3cc(OC)c(O)c(OC)c3)[C@H](O)[C@@H](O)[C@@H]2O)cc(OC)c1O`, in the data set on T cell [1], the inhibition result was “Active”. Take `COc1cc2c(cc1OC)-c1ccc3cc4c(cc3c1N(C)C2)OCO4`: the IC50 in data set [2] was 6.7 µM. Moreover, the inhibition result in the data set with T cell [3] is “Dose-dependent effect”. Also, the Activity entry in data set [4] was “Toxic”. Take `O=C(/C=C/c1ccc(O)cc1)NCCc1ccc(O)cc1`: the inhibition entry in the data set on T cell [1] is “Active”. Consider `COc1cc2oc(=O)ccc2c(OC)c1C(=O)O`, for which the inhibition entry with T cell [1] was “Active”. For the compound `COc1ccc([C@@H]2CC(=O)c3c(O)cc(O[C@@H]4O[C@H](CO[C@@H]5O[C@@H](C)[C@H](O)[C@@H](O)[C@H]5O)[C@@H](O)[C@H](O)[C@H]4O)cc3O2)cc1O`, the inhibition entry in the data set with T cell [1] is “Active”.

For the compound `COc1cc2c[n+](C)c3c4cc5c(cc4ccc3c2cc1OC)OCO5.[Cl-]` [NITIDINE CHLORIDE], in data set [2], 0.4 µM corresponded to half-maximal inhibition (IC50). Also, the inhibition result with T cell [3] is “Dose-dependent effect”. Besides, the Activity entry in data set [5] and in data set [4] was “Toxic” each time.
